In article PMC5907308, “21st Brazilian Diabetes Society Congress” (Diabetology & Metabolic Syndrome, 2018):

How the values were obtained:
[1] = tested on: patients submitted to liver transplantation; type: in vivo, human; conditions: Tacrolimus 95% CI 1.2–32.5, p = 0.029; PDN 95% CI 2.4–21, 8, p < 0.001
Source text: A total of 152 patients were included. […] Comparisons were done with Chi square tests and analysis of independent risk factors with multivariate logistic regression.

[2] = tested on: pregnancies; conditions: general population: 3-4%; no reference given; cited from earlier work
Source text: Discussion: In transplanted pregnant women, hypertension and DM increase the risk of prematurity, restricted intrauterine growth (IUGR) and graft loss. […] In addition, there is a higher rate of small newborns for GI. […] As for immunosuppressants, there are few reports. Tacrolimus appears safe (prevalence of congenital malformations: 4-5% ...

[3] = tested on: patients with diabetic dyslipidemia; conditions: fenofibrate in combination with simvastatin, subgroup with diabetic dyslipidemia; ref [1]; cited from earlier work
[4] = tested on: patient with DM1 and suspected hyporeninemic hypoaldosteronism; assay: Case report: fludrocortisone therapeutic test; type: in vivo, human; conditions: fludrocortisone 0.2 mg/day
Method: Case presentation: A person, diagnosed with type 1 diabetes mellitus (DM1) for 12 years, presented progressive of walking difficulties 5 years ago, associated with dizziness, weakness, and tachycardia at rest with hypotension. […] Neuropathy Disability Score (NDS) was carried out, presenting 10 out of 10 points, classified as severe impairment. Because of an extremely significant clinical condition, with no evidence of microvascular compromise, hyporeninemic hypoaldosteronism (HH) was investigated. […] Subsequently, the patient was exposed to the exogenous ACTH test, with the administration of ACTH 250mcg intravenous and dosages of serum cortisol and aldosterone at times 0‘, 30‘, 60‘. There was an elevation of serum cortisol to levels above the limit of normality (18 mcg/dL), discarding primary adrenal insufficiency, and aldosterone levels at the lower limit of normal (attached tables). Even tests without confirmation, the use of fludrocortisone 0.2 mg/day was started as a therapeutic test.

[5] = tested on: patient; assay: Neonatal diabetes, therapeutic test with sulfonylurea, case report; type: in vivo, human; conditions: oral, gradual elevation, insulin suspended; discharged on 20 mg/day
Method: Case presentation: A patient, presenting hypoactivity, sialorrhea and seizures 2 days ago, was admitted to a university hospital. During hospitalization they were evaluated by neurology that identified a discrete delay in neuropsychomotor development. […] Serologies for toxoplasmosis, rubella and measles negative. History of maternal varicella during gestation. […] Due to the delay in carrying out a genetic study to close the diagnosis, material was collected and sent to the genetic service and prescribed sulfonylurea (glibenclamide) as a therapeutic test. The oral medication was initiated in low doses with gradual elevation, and progressive reduction of the insulin until its suspension. […] They were discharged from the hospital using glibenclamide 20 mg/day. The patient is in outpatient follow-up at the endocrinology department of the João de Barros Barreto University Hospital. Endocrinology work team is still waiting for genetic analysis.

[6] = tested on: patient with diffuse cutaneous leishmaniasis; assay: Pentamidine-induced diabetes mellitus, case report; type: in vivo, human
Method: Case report: Patient two, diagnosis of diffuse cutaneous leishmaniasis in treatment since 1995 without therapeutic response after several treatments. Regular follow up with infectology, in maintenance treatment with miltefosine and in treatment with pentamidine every 30 days from January 2017, with a marked improvement of cutaneous lesions. During the follow-up, in consultation in July 2017, they complained of weight loss, polydipsia and nocturia, with serum glycemia of 901 mg/dL. Patient was referred to the hospital where they were diagnosed with a non-ketosis hyperosmolar state, with tests showing serum osmolarity of […] and glycated hemoglobin 10.31%. During hospitalization and after discharge maintained insulin use for glycemic control. Treatment of leishmaniasis with pentamidine was discontinued and will keep following-up with infectology and endocrinology.

[7] = tested on: patient with diffuse cutaneous leishmaniasis; conditions: side effect, literature; no reference given; cited from earlier work
[8] = tested on: patient with metastatic lung adenocarcinoma; assay: New-onset diabetes on Nivolumab, case report (A288); type: in vivo, human
Method: Case report: A patient was started on Nivolumab infusions every 15 days after chemotherapy refractory progressive metastatic lung adenocarcinoma, with no prior history of diabetes. After 4 infusions, they experienced xerostomia, polyuria, polydipsia and asthenia. Upon emergency evaluation, they were started on I.V. insulin after a capillary glycemia of 600 mg/dL. They were discharged home with 10 units of NPH insulin bedtime, with a referral to the endocrinologist. […] Insulin was titrated for a total daily dose of 0.5 UI/kg. […] Nivolumab was withdrawn and no glycemic improvement nor insulin dose reductions were noted.

[9] = tested on: patient with squamous cell carcinoma of the hypopharynx; assay: Autoimmune diabetes after Nivolumab therapy, case report (A402); type: in vivo, human; conditions: anti-GAD and anti-ICA positive
Source text: Case report: A patient with diagnosis of squamous cell carcinoma of the hypopharynx and pulmonary metastasis 2 years ago, after a failed treatment with conventional chemotherapy and radiotherapy, started a new class of cancer medication called Nivolumab—human immunoglobulin G4 monoclonal antibody. […] Investigation about the cause of the onset of diabetes founded positivity for diabetes antibodies, anti-GAD and anti-ICA, confirming autoimmune diabetes. Patient has been on intensive insulin therapy since then, with difficult glycemic control due to great glycemic variability.

[10] = tested on: elderly patients with T2DM; assay: Pilot randomized trial Ideg vs Iglar-U100 with CGM; type: in vivo, human
Method: Methods: It is a pilot study with ten patients during six weeks, randomized, prospective, controlled and open label trial. Inclusion criteria: T2DM, age over 60 years, A1C from 7 to 10%, use of NPH insulin with or without oral antidiabetic drugs. […] They were evaluated for glucose variability (GV) and HYPOs by continuous glucose monitoring (CGM) after 2 weeks of treatment with either insulin.

[11] = tested on: subjects with T2D inadequately controlled on IGlarU100 and metformin; assay: DUAL V 26-week open-label treat-to-target trial; type: in vivo, human
[12] = tested on: patients with T2DM uncontrolled on oral antidiabetic agents; assay: LixiLan-O, time to glycemic control (Kaplan–Meier), post hoc; type: in vivo, human; conditions: LL-O
Method: The Kaplan–Meier method was used to estimate time to control, defined as time (days) to first achieve HbA1c < 7% or FPG ≤ 130 mg/dL. […] In addition to lowering FPG via iGlar, iGlarLixi lowers PPG, likely contributing to its greater efficacy in achieving glycemic control vs. iGlar alone. […] Study codes: NCT02058160 and NCT02058147. This is an ENCORE abstract previously presented at ADA 2017. Funding and editorial support provided by Sanofi (Fig. 1)

## C=CC[C@@H]1/C=C(\C)C[C@H](C)C[C@H](OC)[C@H]2O[C@@](O)(C(=O)C(=O)N3CCCC[C@H]3C(=O)O[C@H](/C(C)=C/[C@@H]3CC[C@@H](O)[C@H](OC)C3)[C@H](C)[C@@H](O)CC1=O)[C@H](C)C[C@@H]2OC [Tacrolimus]
[1]
  independent risk factor for PTDM, OR: 6.3
[2]
  prevalence of congenital malformations: 4-5%

## CC(C)OC(=O)C(C)(C)Oc1ccc(C(=O)c2ccc(Cl)cc2)cc1 [fenofibrate]
[3]
  primary outcomes reduced compared to placebo: about 30%

## C[C@]12CCC(=O)C=C1CC[C@H]1[C@@H]3CC[C@](O)(C(=O)CO)[C@@]3(C)C[C@H](O)[C@@]12F [fludrocortisone]
[4]
  clinical course: improvement of the blood pressure (BP) and dizziness

## COc1ccc(Cl)cc1C(=O)NCCc1ccc(S(=O)(=O)NC(=O)NC2CCCCC2)cc1 [glibenclamide]
[5]
  clinical evolution: good glycemic control and improved neurological symptoms

## N=C(N)c1ccc(OCCCCCOc2ccc(C(=N)N)cc2)cc1 [pentamidine]
[6]; in vivo
  glycated hemoglobin: 10.31%
[6]; non-ketosis hyperosmolar state
  serum osmolarity: 306 mOsm/L
[6]; pentamidine every 30 days from January 2017, July 2017
  serum glycemia: 901 mg/dL
[7]
  hyperglycemia reported, cases: 1-5%

## Nivolumab
[8]; after 4 infusions, every 15 days
  capillary glycemia: 600 mg/dL
[8]; in vivo
  C-peptide: 0.34 ng/dL
  possible adverse event: New-onset diabetes presenting with Diabetic Ketoacidosis and low levels of Cpeptide
[9]
  presentation after the third cycle: hyperglycemia, polyuria and polydipsia

## insulin glargine [Gla-100]
[10]; CGM after 2 weeks, n = 5 per group, P = 0.84
  24-h mean glucose, median (minimum–maximum): 169 (138–193) mg/dL
[10]; CGM, P = 0.22
  standard deviation from the mean glucose, median (minimum–maximum): 45 (41–66)
[11]; NS
  mean fasting SMBG after 26 weeks: 5.6 mmol/L
[11]; in vivo
  Mean HbA1c after 26 weeks of treatment: 7.1%
  Mean HbA1c, baseline: 8.2%
[12]
  Days to first HbA1c <7%, median: 166.0 days
